{"source": "patent US12220411B1", "about": "“Application of PTGDS inhibitor in preparation of drug for treating cataracts” (THE EYE HOSPITAL OR WENZHOU MEDICAL UNIVERSITY, priority 2023, dated 2025)", "key": {"HLEC-B3 cell line": {"test_system": "HLEC-B3 cell line", "experiment": "CCK8 cell activity with AT-56 added", "type": "cell-based, human", "procedure": "AT-56 was added to the cell line."}, "lens epithelial cells [1]": {"test_system": "lens epithelial cells", "experiment": "ROS fluorescence staining in H2O2 epithelial cell oxidation model", "type": "cell-based, human", "settings": "200 μM H2O2 and 10 µM AT-56 (FIG. 9)"}, "lens epithelial cells [2]": {"test_system": "lens epithelial cells", "experiment": "MDA content measurement (oxidative stress injury)", "type": "cell-based, human", "procedure": "MDA is an important index of oxidative stress, and measurement on the content of the MDA reflects a degree of an oxidative stress injury. After addition of different concentrations of PTGDS (FIG. 10A) and PGD2 (FIG. 10B), values of MDA were measured."}, "lens epithelial cells [3]": {"test_system": "lens epithelial cells", "experiment": "Apoptosis of lens epithelial cells cultured with H2O2", "type": "cell-based, human", "settings": "10 μM AT-56 added to 200 μM H2O2 (FIG. 11)", "excerpt": "If the lens epithelial cells suffer from the oxidative stress injury, excessive ROS may accumulate in the cells, which can cause apoptosis until generation of cataracts."}, "rat lens": {"test_system": "rat lens", "experiment": "In vitro oxidative opacity model for a rat lens (lens organ culture)"}, "lens epithelial cells [4]": {"test_system": "lens epithelial cells", "experiment": "ROS fluorescence staining after addition of PTGDS or PGD2", "type": "cell-based, human"}}}
{"molecule": "C1=Cc2ccccc2C(=C2CCN(CCCCc3nn[nH]n3)CC2)c2ccccc21", "note": "[AT-56, 4-dibenzo[a,d]cyclohepten-5-ylidene-1-[4-(2H-tetrazol-5-yl)-butyl]-piperidine]", "values": [{"measurement": "cell activity (CCK8)", "setting": "HLEC-B3 cell line; 7 μM AT-56, versus DMSO", "result": "higher than that with the addition of DMSO"}, {"measurement": "cell activity (CCK8)", "setting": "HLEC-B3 cell line; 10 μM AT-56, versus DMSO", "result": "higher than that with the addition of DMSO"}, {"measurement": "ROS production in H2O2 epithelial cell oxidation model", "setting": "lens epithelial cells [1]", "result": "inhibit lens epithelial cells from producing ROS"}, {"measurement": "production of the MDA", "setting": "lens epithelial cells [2]; AT-56 added to 200 μM H2O2 (FIG. 10C)", "result": "effectively reduce production of the MDA"}, {"measurement": "apoptosis of lens epithelial cells", "setting": "lens epithelial cells [3]", "result": "effectively reduce apoptosis"}, {"measurement": "progression of the cataracts (lens opacity)", "setting": "rat lens; 200 μM H2O2 + 7 or 10 μM AT-56 for 12 h (FIGS. 12A-D)", "result": "alleviated progression of the cataracts"}, {"measurement": "degree of the cataracts (lens opacity)", "setting": "rat lens; 200 μM H2O2 for 12 h, then 7 or 10 μM AT-56 for 24 h (FIGS. 12E-G)", "result": "effectively reduce the degree of the cataracts"}]}
{"molecule": "CCCCC[C@H](O)/C=C/[C@H]1C(=O)C[C@H](O)[C@@H]1C/C=C\\CCCC(=O)O", "note": "[PGD2, prostaglandin D2]", "values": [{"measurement": "levels of ROS produced by the lens epithelial cells", "setting": "lens epithelial cells [4]; PGD2 0.1, 0.4, 0.7, 1.0 nM versus DMSO (FIG. 8)", "result": "increased, and were concentration-dependent"}, {"measurement": "content of MDA", "setting": "lens epithelial cells [2]; different concentrations of PGD2 (FIG. 10B)", "result": "increased with the increase of the concentration"}]}
{"molecule": "PTGDS: prostaglandin H2 (PGH2) D-isomerase protein added to lens epithelial cells at 100-1000 pg/mL (protein, UniProt P41222 23-190, looked up) Prostaglandin-H2 D-isomerase: APEAQVSVQPNFQQDKFLGRWFSAGLASNSSWLREKKAALSMCKSVVAPATDGGLNLTSTFLRKNQCETRTMLLQPAGSLGSYSYRSPHWGSTYSVSVVETDYDQYALLYSQGSKGPGEDFRMATLYSRTQTPRAELKEKFTAFCKAQGFTEDTIVFLPQTDKCMTEQ", "values": [{"measurement": "levels of ROS produced by the lens epithelial cells", "setting": "lens epithelial cells [4]; PTGDS 100, 400, 700, 1000 pg/mL versus DMSO control (FIG. 7)", "result": "increased, and were concentration-dependent"}, {"measurement": "content of MDA", "setting": "lens epithelial cells [2]; different concentrations of PTGDS (FIG. 10A)", "result": "increased with the increase of the concentration"}]}
